For series [1] the following is noted: C57BL/6 DIO mice, 60 μmol/kg DB (26.8 mg/kg) once daily, 28-day period, vs vehicle; cited from earlier work.
The conditions of series [2]: healthy volunteers, 1 μmol/kg DB; cited from earlier work.
The subject of series [3] is TAS2R subtypes. The note with it: cited from earlier work.
A short description of series [4]: acute food intake inhibition study, oral gavage, Sprague Dawley rats. It is filed as in vivo. The text has this:
In a short-term food intake inhibition study, in Sprague Dawley rats the doses of DB administered were 7.5, 15, 30, and 60 μmol/kg. The corresponding human equivalent doses (HED) are be 1.2, 2.4, 4.9, 9.7 μmol/kg, respectively. In a longer-term food intake inhibition study in C57BL/6NTac mice the dose of DB used was 60 μmol/kg. The corresponding HED was 4.9 μmol/kg. […] Therefore, the disclosed formulation provides a dose of DB from about 500 nmol/kg to about […], which corresponds to from about 10 mg to about 200 mg for a human adult.
This example provides the results of an oral dose rat gavage study, measuring food and water intake following administration of a disclosed formulation by gavage. We conducted an acute food intake inhibition study of DB in Sprague Dawley rats.
For a longer term study, in view of the foregoing acute study findings, the effect of a combination of components was investigated. To ensure the adequate effect of the DB combination, 60 μmol/kg (26.8 mg/kg) once daily for DB in the first two weeks of the study was used, and then switched to twice daily in the last two weeks of the study.

For series [5] the following is noted: normal C57BL/6 mice, oral DB only at 60 μmol/kg (26.8 mg/kg); cited from earlier work.
The conditions of series [6]: in vivo; cited from earlier work.
The conditions of series [7]: judged, times more bitter than denatonium benzoate; cited from earlier work.

Counter-ions that a name gives are not always drawn.

We go through five compounds from patent US10835505B2, “Oral pharmaceutical formulation for weight loss, diabetes and related disorders” (priority 2018, dated 2020).

As usually defined, the half-life is the time in which the quantity being followed falls by half.

Take `CC[N+](CC)(CC(=O)Nc1c(C)cccc1C)Cc1ccccc1.O=C([O-])c1ccccc1` [DB, benzyl-[2-(2,6-dimethylanilino)-2-oxoethyl]-diethylazanium benzoate]: the body weight entry in series [1] is recorded as “induced a decrease in body weight”. For the same compound, in series [2], the nutrient volume tolerance entry was “decreased nutrient volume tolerance” and the satiation entry is “increased satiation”. In addition, the “number of TAS2R subtypes activated” value in series [3] is “eight”. Also, the food intake result in series [4] (Sprague Dawley rats, various doses of DB by gavage, within the first 6 h after administration) is listed as “significantly inhibited food intake”. Further, the half-life in series [4] (rat, in vivo, oral, inferred from duration of food intake inhibition in Sprague Dawley rats) was 6 h. The gastric emptying rate result in series [5] was “significantly inhibited gastric emptying rate”.

With `O=C(/C=C/c1ccc(O)c(O)c1)O[C@@H]1C[C@]2(O)C[C@@H](OC2=O)[C@@H]1O` [3-CQL, (1R,3R,4R,5R)-1,4-Dihydroxy-7-oxo-6-oxabicyclo[3.2.1]oct-3-yl (2E)-3-(3,4-dihydroxyphenyl)acrylate], in series [3], the “number of TAS2R subtypes activated” value is given as “eight”.

Turning to `C=C[C@H]1C[N@]2CC[C@H]1C[C@H]2[C@H](O)c1ccnc2ccc(OC)cc12` [Quinine, (R)-[(2S,4S,5R)-5-ethenyl-1-azabicyclo[2.2.2]octan-2-yl]-(6-methoxyquinolin-4-yl)methanol, reference compound], the “number of TAS2R subtypes activated” value in series [3] is “nine”.

For `CN1CCc2cccc3c2[C@H]1Cc1ccc(O)c(O)c1-3` [Apomorphine, (6aR)-5,6,6a,7-Tetrahydro-6-methyl-4H-dibenzo(de,g)chinolin-10,11-diol hydrochlorid], the oral availability in series [6] is roughly 4%.

On to `CC[N+](CC)(CC(=O)Nc1c(C)cccc1C)Cc1ccccc1` [denatonium saccharide, benzyl-[2-(2,6-dimethylanilino)-2-oxoethyl]-diethylazanium; 1,1-dioxo-1,2-benzothiazol-3-olate], for which the “bitterness relative to denatonium benzoate” value in series [7] was 5 times.
